Reference: the CombiSolv-Exp solvation set (Vermeire and Green 2021)
Values belong to the compound of their own block, whether it stands above or below them.

Assay: solvent given as SMILES

solvation free energy, 298 K (in O): -9.4 kcal/mol
SMILES: CCC(N)=O

solvation free energy, 298 K (in O): -7.67 kcal/mol
SMILES: COc1cccc(O)c1

solvation free energy, 298 K (in CCCCCCCCC=CCCCCCCCC(=O)OCC(COC(=O)CCCCCCCC=CCCCCCCCC)OC(=O)CCCCCCCC=CCCCCCCCC): -16.9 kcal/mol | solvation free energy, 298 K (in O): -7.83 kcal/mol
SMILES: c1cc2cccc3c4cccc5cccc(c(c1)c23)c54

solvation free energy, 298 K (in O): -1.54 kcal/mol
SMILES: CCSSCC

solvation free energy, 298 K (in O): -4.56 kcal/mol
SMILES: O=C(CC(=O)C(F)(F)F)C(F)(F)F

solvation free energy, 298 K (in O): -6.15 kcal/mol
SMILES: O=C(CC(=O)C(F)(F)F)c1cccs1

solvation free energy, 298 K (in C=CCCCCCCCCCCCCCC): -3.87 kcal/mol | solvation free energy, 298 K (in O): 1.77 kcal/mol
SMILES: C=CCCC(C)C

solvation free energy, 298 K (in O): -13.2 kcal/mol
SMILES: CCCOCCOC(=O)c1ccccc1C(=O)OCCOCCC

solvation free energy, 298 K (in CCCCCC): -6.05 kcal/mol | solvation free energy, 298 K (in CCCCCCCCCCCCCCCC): -6.04 kcal/mol | solvation free energy, 298 K (in O): -4.58 kcal/mol
SMILES: CC(=O)c1ccccc1

More lines, now with the values behind:

SMILES: CCc1ccccc1
solvation free energy, 298 K (in C1CCOC1): -6.03 kcal/mol | solvation free energy, 298 K (in C1COCCO1): -5.7 kcal/mol | solvation free energy, 298 K (in C=CCCCCCCCCCCCCCC): -5.07 kcal/mol | solvation free energy, 298 K (in CC#N): -5.19 kcal/mol | solvation free energy, 298 K (in CC(=O)N(C)C): -5.46 kcal/mol | solvation free energy, 298 K (in CC(C)(C)O): -4.99 kcal/mol | solvation free energy, 298 K (in CC(C)CC(C)(C)C): -5.3 kcal/mol | solvation free energy, 298 K (in CC(C)CO): -4.95 kcal/mol | solvation free energy, 298 K (in CC(C)O): -4.88 kcal/mol | solvation free energy, 298 K (in CC(O)CO): -4.1 kcal/mol | solvation free energy, 298 K (in CCC#N): -5.78 kcal/mol | solvation free energy, 298 K (in CCC(C)=O): -5.62 kcal/mol | solvation free energy, 298 K (in CCCC#N): -5.6 kcal/mol | solvation free energy, 298 K (in CCCCC(CC)COC(=O)CCCCC(=O)OCC(CC)CCCC): -5.37 kcal/mol | solvation free energy, 298 K (in CCCCCC): -5.35 kcal/mol | solvation free energy, 298 K (in CCCCCCC): -5.36 kcal/mol | solvation free energy, 298 K (in CCCCCCCCCC): -5.23 kcal/mol | solvation free energy, 298 K (in CCCCCCCCCCCCCCCC): -5.16 kcal/mol | solvation free energy, 298 K (in CCCCCCCCO): -5.05 kcal/mol | solvation free energy, 298 K (in CCCCN(C=O)CCCC): -5.44 kcal/mol | solvation free energy, 298 K (in CCCCOC(=O)c1ccccc1C(=O)OCCCC): -5.38 kcal/mol | solvation free energy, 298 K (in CCCO): -4.93 kcal/mol | solvation free energy, 298 K (in CCO): -4.83 kcal/mol | solvation free energy, 298 K (in CCOC(=O)c1ccccc1C(=O)OCC): -5.23 kcal/mol | solvation free energy, 298 K (in CN(C)C=O): -5.41 kcal/mol | solvation free energy, 298 K (in CNC(C)=O): -5.05 kcal/mol | solvation free energy, 298 K (in CNC=O): -4.82 kcal/mol | solvation free energy, 298 K (in CO): -4.86 kcal/mol | solvation free energy, 298 K (in COCCO): -5.05 kcal/mol | solvation free energy, 298 K (in Clc1ccccc1): -5.84 kcal/mol | solvation free energy, 298 K (in NC=O): -3.26 kcal/mol | solvation free energy, 298 K (in O): -0.72 kcal/mol | solvation free energy, 298 K (in O=CN1CCOCC1): -5.01 kcal/mol | solvation free energy, 298 K (in O=Cc1ccco1): -5.04 kcal/mol | solvation free energy, 298 K (in OCCCCCO): -4.4 kcal/mol | solvation free energy, 298 K (in OCCCCO): -4.2 kcal/mol | solvation free energy, 298 K (in OCCCO): -3.91 kcal/mol | solvation free energy, 298 K (in OCCO): -3.36 kcal/mol | solvation free energy, 298 K (in OCCOCCO): -4.15 kcal/mol | solvation free energy, 298 K (in OCCOCCOCCO): -4.31 kcal/mol | solvation free energy, 298 K (in OCCOCCOCCOCCO): -4.38 kcal/mol

SMILES: C=CCl
solvation free energy, 298 K (in O): -0.59 kcal/mol

SMILES: CCOCCOCC
solvation free energy, 298 K (in O): -3.54 kcal/mol

SMILES: O=C(O)c1cc(-c2ccc(F)cc2F)ccc1O
solvation free energy, 298 K (in O): -9.4 kcal/mol

SMILES: CC(=O)OC(C)OC(C)=O
solvation free energy, 298 K (in O): -4.97 kcal/mol

SMILES: c1ccc2c(c1)OCCOCCOCCOCCO2
solvation free energy, 298 K (in Cc1cccc(C)c1): -14.8 kcal/mol | solvation free energy, 298 K (in O): -14.4 kcal/mol

SMILES: CC(C)CN(CC(C)C)N=O
solvation free energy, 298 K (in CC(C)CC(C)(C)C): -7.35 kcal/mol | solvation free energy, 298 K (in O): -4.84 kcal/mol

SMILES: CCOP(=S)(OCC)SCSc1ccc(Cl)cc1
solvation free energy, 298 K (in O): -6.5 kcal/mol

SMILES: C1CCOC1
solvation free energy, 298 K (in CC(=O)N(C)C): -3.96 kcal/mol | solvation free energy, 298 K (in CC(C)=O): -4.12 kcal/mol | solvation free energy, 298 K (in CC(C)CC(C)(C)C): -3.72 kcal/mol | solvation free energy, 298 K (in CC(C)CCCC(C)CCCC(C)CCCCC(C)CCCC(C)CCCC(C)C): -3.35 kcal/mol | solvation free energy, 298 K (in CC(C)CCl): -4.2 kcal/mol | solvation free energy, 298 K (in CC(C)O): -4.01 kcal/mol | solvation free energy, 298 K (in CCC(C)Cl): -4.16 kcal/mol | solvation free energy, 298 K (in CCCCCC): -3.68 kcal/mol | solvation free energy, 298 K (in CCCCCCC): -3.7 kcal/mol | solvation free energy, 298 K (in CCCCCCCC): -3.66 kcal/mol | solvation free energy, 298 K (in CCCCCCCCCCCCCCCC): -3.43 kcal/mol | solvation free energy, 298 K (in CCCCCCCCO): -3.9 kcal/mol | solvation free energy, 298 K (in CCCCCl): -4.19 kcal/mol | solvation free energy, 298 K (in CCCCN(C=O)CCCC): -3.89 kcal/mol | solvation free energy, 298 K (in CCCCOCCCC): -3.8 kcal/mol | solvation free energy, 298 K (in CCCCl): -4.31 kcal/mol | solvation free energy, 298 K (in CCCO): -4.02 kcal/mol | solvation free energy, 298 K (in CCN1CCCC1=O): -3.95 kcal/mol | solvation free energy, 298 K (in CCN(CC)C(C)=O): -3.97 kcal/mol | solvation free energy, 298 K (in CCNC(C)=O): -3.89 kcal/mol | solvation free energy, 298 K (in CCNC=O): -3.93 kcal/mol | solvation free energy, 298 K (in CCO): -4.09 kcal/mol | solvation free energy, 298 K (in CCOC(C)=O): -4.11 kcal/mol | solvation free energy, 298 K (in CN1CCCC1=O): -4.04 kcal/mol | solvation free energy, 298 K (in CN1CCCCC1=O): -3.92 kcal/mol | solvation free energy, 298 K (in CNC(C)=O): -3.87 kcal/mol | solvation free energy, 298 K (in CO): -4.43 kcal/mol | solvation free energy, 298 K (in CS(C)=O): -3.67 kcal/mol | solvation free energy, 298 K (in ClC(Cl)(Cl)Cl): -4.28 kcal/mol | solvation free energy, 298 K (in ClC(Cl)Cl): -5.12 kcal/mol | solvation free energy, 298 K (in ClCCCl): -4.53 kcal/mol | solvation free energy, 298 K (in NC=O): -3.69 kcal/mol | solvation free energy, 298 K (in O): -3.49 kcal/mol | solvation free energy, 298 K (in O=CN1CCOCC1): -3.7 kcal/mol | solvation free energy, 298 K (in [2H]O[2H]): -3.5 kcal/mol

SMILES: COP(=O)(OC)OC
solvation free energy, 298 K (in O): -8.7 kcal/mol

SMILES: Clc1ccc2c(c1)Oc1ccccc1O2
solvation free energy, 298 K (in O): -3.1 kcal/mol
